Assay results taken from ChEMBL document CHEMBL1201862, “PubChem BioAssay data set” (2004).
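Values below derive from 48-hour exposures of cells grown in 96-well plates, with endpoints linearly interpolated between the two concentrations bracketing the appropriate inhibition level. The concentration for 50% growth inhibition is given as GI50.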 The source made the active and inactive calls. No stated cut-off is given here; in the data, active = GI50 up to about 1.1 µM and inactive = higher.

Legend:
Test in all cases: NCI-60 cell line screen, 48 h
NCI/ADR-RES = tested on: NCI/ADR-RES
UO-31 = tested on: UO-31
Malme-3M = tested on: Malme-3M
SK-OV-3 = tested on: SK-OV-3
TK-10 = tested on: TK-10
HOP-62 = tested on: HOP-62
K562 = tested on: K562
KM12 = tested on: KM12
HOP-92 = tested on: HOP-92
MCF7 = tested on: MCF7
PC-3 = tested on: PC-3
SF-539 = tested on: SF-539
HL-60 = tested on: HL-60
NCI-H23 = tested on: NCI-H23
HT-29 = tested on: HT-29
ACHN = tested on: ACHN
OVCAR-4 = tested on: OVCAR-4
HCT-116 = tested on: HCT-116
SK-MEL-2 = tested on: SK-MEL-2
RXF 393 = tested on: RXF 393
HCC 2998 = tested on: HCC 2998
A549 = tested on: A549
LOX IMVI = tested on: LOX IMVI
OVCAR-8 = tested on: OVCAR-8
RPMI-8226 = tested on: RPMI-8226
SF-295 = tested on: SF-295
A498 = tested on: A498
CAKI-1 = tested on: CAKI-1
NCI-H226 = tested on: NCI-H226
SW-620 = tested on: SW-620
SNB-75 = tested on: SNB-75
NCI-H522 = tested on: NCI-H522
OVCAR-3 = tested on: OVCAR-3
M14 = tested on: M14
MDA-MB-435 = tested on: MDA-MB-435
MDA-N = tested on: MDA-N
COLO 205 = tested on: COLO 205
U-251 = tested on: U-251
T47D = tested on: T47D
OVCAR-5 = tested on: OVCAR-5
SF-268 = tested on: SF-268
BT-549 = tested on: BT-549
SR = tested on: SR
CCRF-CEM = tested on: CCRF-CEM
HCT-15 = tested on: HCT-15
UACC-62 = tested on: UACC-62
NCI-H460 = tested on: NCI-H460
SNB-19 = tested on: SNB-19
SK-MEL-28 = tested on: SK-MEL-28
Hs-578T = tested on: Hs-578T
SN12C = tested on: SN12C
SK-MEL-5 = tested on: SK-MEL-5
MOLT-4 = tested on: MOLT-4
786-0 = tested on: 786-0
EKVX = tested on: EKVX
MDA-MB-231 = tested on: MDA-MB-231
IGROV-1 = tested on: IGROV-1
DU-145 = tested on: DU-145
UACC-257 = tested on: UACC-257
KM-20L2 = tested on: KM-20L2
SNB-78 = tested on: SNB-78
LXFL 529 = tested on: LXFL 529
M19-MEL = tested on: M19-MEL
DLD-1 = tested on: DLD-1
DMS-273 = tested on: DMS-273
HOP-18 = tested on: HOP-18

Compound: COC(=O)c1ccc2n1C1CC3CC(CC2C3)C1
- GI50 (NCI/ADR-RES): > 100 µM (inactive)
- GI50 (UO-31): > 100 µM (inactive)
- GI50 (Malme-3M): > 100 µM (inactive)
- GI50 (SK-OV-3): > 100 µM (inactive)
- GI50 (TK-10): > 100 µM (inactive)
- GI50 (HOP-62): > 100 µM (inactive)
- GI50 (K562): 51.2 µM (inactive)
- GI50 (KM12): > 100 µM (inactive)
- GI50 (HOP-92): 24.8 µM (inactive)
- GI50 (MCF7): > 100 µM (inactive)
- GI50 (PC-3): 40 µM (inactive)
- GI50 (SF-539): > 100 µM (inactive)
- GI50 (HL-60): 15.3 µM (inactive)
- GI50 (NCI-H23): 90.8 µM (inactive)
- GI50 (HT-29): 31.5 µM (inactive)
- GI50 (ACHN): > 100 µM (inactive)
- GI50 (OVCAR-4): > 100 µM (inactive)
- GI50 (HCT-116): 42.6 µM (inactive)
- GI50 (SK-MEL-2): 70.6 µM (inactive)
- GI50 (RXF 393): 21.5 µM (inactive)
- GI50 (HCC 2998): 91.2 µM (inactive)
- GI50 (A549): > 100 µM (inactive)
- GI50 (LOX IMVI): > 100 µM (inactive)
- GI50 (OVCAR-8): > 100 µM (inactive)
- GI50 (RPMI-8226): 42.8 µM (inactive)
- GI50 (SF-295): > 100 µM (inactive)
- GI50 (A498): > 100 µM (inactive)
- GI50 (CAKI-1): > 100 µM (inactive)
- GI50 (NCI-H226): > 100 µM (inactive)
- GI50 (SW-620): > 100 µM (inactive)
- GI50 (SNB-75): > 100 µM (inactive)
- GI50 (NCI-H522): > 100 µM (inactive)
- GI50 (OVCAR-3): > 100 µM (inactive)
- GI50 (M14): > 100 µM (inactive)
- GI50 (MDA-MB-435): > 100 µM (inactive)
- GI50 (MDA-N): > 100 µM (inactive)
- GI50 (COLO 205): > 100 µM (inactive)
- GI50 (U-251): > 100 µM (inactive)
- GI50 (T47D): 53.6 µM (inactive)
- GI50 (OVCAR-5): > 100 µM (inactive)
- GI50 (SF-268): > 100 µM (inactive)
- GI50 (BT-549): > 100 µM (inactive)
- GI50 (SR): 46.3 µM (inactive)
- GI50 (CCRF-CEM): > 100 µM (inactive)
- GI50 (HCT-15): > 100 µM
- GI50 (UACC-62): 41.2 µM (inactive)
- GI50 (NCI-H460): > 100 µM (inactive)
- GI50 (SNB-19): > 100 µM (inactive)
- GI50 (SK-MEL-28): > 100 µM (inactive)
- GI50 (Hs-578T): 16.2 µM (inactive)
- GI50 (SN12C): > 100 µM (inactive)
- GI50 (SK-MEL-5): 30.9 µM (inactive)
- GI50 (MOLT-4): 57.5 µM (inactive)
- GI50 (786-0): > 100 µM (inactive)
- GI50 (EKVX): > 100 µM (inactive)
- GI50 (MDA-MB-231): > 100 µM (inactive)
- GI50 (IGROV-1): > 100 µM (inactive)
- GI50 (DU-145): > 100 µM (inactive)
- GI50 (UACC-257): > 100 µM (inactive)

Compound: OC1CC(O)O[C@H](c2ccccc2)C1 (stereo partly specified)
- GI50 (UO-31): > 100 µM (inactive)
- GI50 (Malme-3M): > 100 µM (inactive)
- GI50 (TK-10): > 100 µM (inactive)
- GI50 (HOP-62): > 100 µM (inactive)
- GI50 (K562): > 100 µM (inactive)
- GI50 (KM12): > 100 µM (inactive)
- GI50 (HOP-92): > 100 µM (inactive)
- GI50 (SF-539): > 100 µM (inactive)
- GI50 (HL-60): > 100 µM (inactive)
- GI50 (NCI-H23): > 100 µM (inactive)
- GI50 (HT-29): > 100 µM (inactive)
- GI50 (ACHN): > 100 µM (inactive)
- GI50 (KM-20L2): > 100 µM (inactive)
- GI50 (OVCAR-4): > 100 µM (inactive)
- GI50 (HCT-116): > 100 µM (inactive)
- GI50 (RXF 393): > 100 µM (inactive)
- GI50 (HCC 2998): > 100 µM (inactive)
- GI50 (A549): > 100 µM (inactive)
- GI50 (LOX IMVI): > 100 µM (inactive)
- GI50 (SNB-78): > 100 µM (inactive)
- GI50 (OVCAR-8): 85.3 µM (inactive)
- GI50 (RPMI-8226): > 100 µM (inactive)
- GI50 (SF-295): > 100 µM (inactive)
- GI50 (A498): > 100 µM (inactive)
- GI50 (CAKI-1): > 100 µM (inactive)
- GI50 (NCI-H226): > 100 µM (inactive)
- GI50 (SW-620): > 100 µM (inactive)
- GI50 (SNB-75): > 100 µM (inactive)
- GI50 (OVCAR-3): > 100 µM (inactive)
- GI50 (M14): > 100 µM (inactive)
- GI50 (LXFL 529): > 100 µM (inactive)
- GI50 (COLO 205): > 100 µM (inactive)
- GI50 (M19-MEL): > 100 µM (inactive)
- GI50 (OVCAR-5): > 100 µM (inactive)
- GI50 (SF-268): > 100 µM (inactive)
- GI50 (SR): > 100 µM (inactive)
- GI50 (CCRF-CEM): > 100 µM (inactive)
- GI50 (HCT-15): > 100 µM
- GI50 (UACC-62): > 100 µM (inactive)
- GI50 (NCI-H460): > 100 µM (inactive)
- GI50 (SNB-19): > 100 µM (inactive)
- GI50 (DLD-1): > 100 µM (inactive)
- GI50 (SK-MEL-28): > 100 µM (inactive)
- GI50 (DMS-273): > 100 µM (inactive)
- GI50 (SN12C): > 100 µM (inactive)
- GI50 (SK-MEL-5): > 100 µM (inactive)
- GI50 (MOLT-4): > 100 µM (inactive)
- GI50 (786-0): > 100 µM (inactive)
- GI50 (EKVX): > 100 µM (inactive)
- GI50 (IGROV-1): > 100 µM (inactive)
- GI50 (HOP-18): > 100 µM (inactive)
- GI50 (UACC-257): > 100 µM (inactive)

Compound: COc1cc(C2c3cc4c(cc3[C@@H](NCCN3CCCCC3)C3COC(=O)[C@H]23)OCO4)cc(OC)c1O (stereo partly specified)
- GI50 (UO-31): 0.41 µM (active)
- GI50 (Malme-3M): 0.29 µM (active)
- GI50 (SK-OV-3): 0.098 µM (active)
- GI50 (TK-10): 1.65 µM (inactive)
- GI50 (HOP-62): 0.064 µM (active)
- GI50 (K562): 0.615 µM (active)
- GI50 (KM12): 1.01 µM (active)
- GI50 (HOP-92): 0.142 µM (active)
- GI50 (SF-539): 0.134 µM (active)
- GI50 (HL-60): 0.0426 µM (active)
- GI50 (NCI-H23): 0.206 µM (active)
- GI50 (HT-29): 1.19 µM (inactive)
- GI50 (ACHN): 0.486 µM (active)
- GI50 (KM-20L2): 1.17 µM (inactive)
- GI50 (OVCAR-4): 0.253 µM (active)
- GI50 (HCT-116): 1.15 µM (inactive)
- GI50 (SK-MEL-2): 2.07 µM (inactive)
- GI50 (A549): 0.0656 µM (active)
- GI50 (LOX IMVI): 0.237 µM (active)
- GI50 (SNB-78): 2.57 µM (inactive)
- GI50 (OVCAR-8): 0.718 µM (active)
- GI50 (RPMI-8226): 0.277 µM (active)
- GI50 (SF-295): 0.107 µM (active)
- GI50 (A498): 0.165 µM (active)
- GI50 (CAKI-1): 0.0918 µM (active)
- GI50 (NCI-H226): 0.0387 µM (active)
- GI50 (SW-620): 1.04 µM (active)
- GI50 (OVCAR-3): 0.78 µM (active)
- GI50 (M14): 0.273 µM (active)
- GI50 (LXFL 529): 1.8 µM (inactive)
- GI50 (COLO 205): 1.01 µM (active)
- GI50 (U-251): 0.109 µM (active)
- GI50 (M19-MEL): 0.805 µM (active)
- GI50 (OVCAR-5): 1.41 µM (inactive)
- GI50 (SF-268): 0.346 µM (active)
- GI50 (CCRF-CEM): 0.0378 µM (active)
- GI50 (HCT-15): 0.313 µM
- GI50 (UACC-62): 0.272 µM (active)
- GI50 (SNB-19): 0.354 µM (active)
- GI50 (DLD-1): 1.58 µM (inactive)
- GI50 (SK-MEL-28): 2.11 µM (inactive)
- GI50 (DMS-273): 0.0726 µM (active)
- GI50 (SN12C): 1.91 µM (inactive)
- GI50 (SK-MEL-5): 0.394 µM (active)
- GI50 (MOLT-4): 0.0164 µM (active)
- GI50 (786-0): 0.179 µM (active)
- GI50 (EKVX): 1.55 µM (inactive)
- GI50 (IGROV-1): 1.33 µM (inactive)
- GI50 (HOP-18): 0.303 µM (active)
- GI50 (UACC-257): 2.78 µM (inactive)
